According to ChEMBL document CHEMBL4321783, “Recent Progress in Natural-Product-Inspired Programs Aimed To Address Antibiotic Resistance and Tolerance” (J Med Chem, 2019):
≈ marks a conversion by molar mass, not a printed value. Each block holds one compound with its values, some of them ahead of it. Positions of bridges follow the written chain, without caps; N, C: chain ends. Non-standard residues stand in square brackets, D forms with d. Residues, ends and D or L forms follow the SMILES beside them. *: point of attachment. Phe(3,5-F2) = N[C@@H](Cc1cc(F)cc(F)c1)C(=O)O; Pip(4S-Me) = C[C@H]1CCN[C@H](C(=O)O)C1; Heptenoyl(2E) = CCCC/C=C/C(=O)*; aThr = C[C@H](O)[C@H](N)C(=O)O

Columns and labels:
Staphylococcus aureus [1] = assay: Antibacterial activity against Staphylococcus aureus by CLSI protocol based dilution method; assay type: functional
Staphylococcus aureus [2] = assay: Antibiofilm activity against methicillin-resistant Staphylococcus aureus 1707 assessed as induction of change in gene expression 0.625 uM after 20 hrs by RNA sequencing data based analysis relative to control; assay type: functional
Staphylococcus aureus [3] = assay: Antibiofilm activity against methicillin-resistant Staphylococcus aureus assessed as increase in isdB expression at 0.625 uM after 4 hrs by RT-qPCR analysis relative to control; assay type: functional
Staphylococcus aureus [4] = assay: Antibiofilm activity against methicillin-resistant Staphylococcus aureus 2 assessed as induction of biofilm eradication incubated for 24 hrs followed by 3 times wash out with water and subsequent compound addition measured after 24 hrs; assay type: functional
Staphylococcus aureus [5] = assay: Antibiofilm activity against […] methicillin-resistant Staphylococcus aureus 2 assessed as induction of biofilm eradication incubated for 24 hrs followed by 3 times wash out with water and subsequent compound addition measured after 24 hrs; assay type: functional
Pseudomonas aeruginosa [6] = assay: Growth inhibition of Pseudomonas aeruginosa PA14 after 24 hrs; assay type: functional, organism-based; details: PA14, 24 h
Pseudomonas aeruginosa [7] = assay: Growth inhibition of Pseudomonas aeruginosa PAO1 after 24 hrs; assay type: functional, organism-based; details: PAO1, 24 h

MIC (Staphylococcus aureus [1]): 0.0306 µM (≈ 0.024 µg/mL)
Structure (SMILES): CCCC/C=C/C(=O)N[C@@H](Cc1cc(F)cc(F)c1)C(=O)N[C@@H]1C(=O)N2CCC[C@H]2C(=O)N2CC[C@H](C)C[C@H]2C(=O)N[C@@H](C)C(=O)N2CCC[C@H]2C(=O)O[C@H]1C ({Heptenoyl(2E)}-[Phe(3,5-F2)][aThr]P[Pip(4S-Me)]AP; ester 2-C)

Structure (SMILES): Oc1c(Br)cc(I)c2nc3cc(Cl)c(Cl)cc3nc12
fold change (FC) (Staphylococcus aureus [2]): >=2
fold change (FC) (Staphylococcus aureus [3]): 22.3

Structure (SMILES): CN[C@H](CC(C)C)C(=O)N[C@H]1C(=O)N[C@@H](CC(N)=O)C(=O)N[C@H]2C(=O)N[C@H]3C(=O)N[C@H](C(=O)N[C@H](C(=O)O)c4cc(O)cc(O)c4-c4cc3ccc4O)[C@H](O)c3ccc(c(Cl)c3)Oc3cc2cc(c3O[C@@H]2O[C@H](CO)[C@@H](O)[C@H](O)[C@H]2O[C@H]2C[C@](C)(N)[C@H](O)[C@H](C)O2)Oc2ccc(cc2Cl)[C@H]1O [VANCOMYCIN]
MBEC (Staphylococcus aureus [4]): >2000 µM
MBEC (Staphylococcus aureus [5]): 4 µM

Structure (SMILES): CCCCCC[C@H](CCCCC[C@@H](O)C(N)=O)OC(=O)[C@@H]1CC=CN1C(=O)c1ccccc1O
IC50 (Pseudomonas aeruginosa [6]): 67 to 130 nM
IC50 (Pseudomonas aeruginosa [7]): 1000 nM
